Data published in patent US9884833B2, “Crystalline forms of neurotrophin mimetic compounds and their salts” (Pharmatrophix, Inc., priority 2012, dated 2018).

Columns and labels:
Format in all cases: physicochemical
[1] = Visual solubility measurement in various solvents
Protocol: About 100 mg of disulfate starting material was placed into each of 26 vials. Solvents were added and the vials were stirred for 30 minutes, followed by visual observation for remaining solids. Additional solvent was incrementally added until the solids were dissolved, or a maximum volume of solvent was added and the experiment was terminated. This solubility data was used in designing experiments, selecting the solvents, anti-solvents for crystallization and slurry experiments, sample consumption, etc.

[2] = Hygroscopicity by dynamic vapor sorption (DVS); details: for water uptake: 0-55% RH; for water uptake (sorption maximum): 95% RH
Protocol: Samples were analyzed using an automated dynamic vapor sorption analyzer. The sample (about 1-10 mg) was dried in the instrument 0% RH for 6 hours. The samples were subjected to 0 to 95% RH back to 5% RH at 25° C. in 5% RH steps.
The water content of the as received material was determined by Karl Fischer to be approximately 0.3 wt %. The moisture sorption-desorption isotherms (FIGS. 3A and 3B) were collected using dynamic vapor sorption (DVS) analysis. […] A hydrate may also form near 60% RH.
FIGS. 3A and 3B show the moisture sorption-desorption isotherm and the kinetic plots for Form A. This sample may undergo hydrate formation ≧60% RH, although the shape of the isotherm is less than ideal.
To understand this further a fresh sample of starting material was staged at 60% RH in DVS for about 3 hours allowing sample to gain about 4 wt %. […] FIG. 21.

[3] = Static vapor sorption studies in humidity chambers; details: for weight gain by TGA: after 40 days
Description: Static vapor sorption studies were done in hermetic humidity chambers using saturated salts, or environmental humidity chambers to control the temperature and humidity. Data collected during dynamic vapor sorption studies often are not at theiniodynamic equilibrium. To gain a better understanding of the water uptake and the critical humidity level of the API, samples of the starting material (Form A) were monitored in static humidity chambers to allow the sample to equilibrate with aerial moisture.
In these studies, water vapor sorption was determined gravimetrically (or by Thermogravimetric analysis) by storing samples in open aluminum dishes. Samples were stored at 8 different humidities (23, 33, 43, 53, 60, 69, 75 and 84% RH) at ambient temperature. A few hundred milligrams of Form A was staged at each humidity condition.
The samples were examined periodically either by recording the weight change or by monitoring the water content by Karl Fischer or TGA, and/or XRD pattern. […] The samples stored at humidities higher than 60% RH deliquesced after 10 days.

[4] = Non-competitive slurry experiments (solid form stability)
Description: In addition to the solvent recrystallization experiments, non-competitive slurry experiments were perfoi ined to search for new solid state forms. These experiments rely on solubility differences of different polymorphic forms (if the compound is polymorphic). […] Essentially, when a solid is mixed with solvent as slurry, a saturated solution eventually results. The solution is saturated with respect to the polymorphic form dissolved.
In addition, noncompetitive slurry experiments are often useful in identifying solvents that form solvates with the compound.
The slurry experiments were performed by exposing excess “starting” material (Form A) to neat (single) and binary solvent mixtures and agitating the resulting suspensions for several days at ambient temperature. The solids were vacuum filtered and analyzed by XRD to determine the resulting form. To avoid possible desolvation or physical change after isolation, the samples were not further dried before X-ray analysis.

[5] = DVS sorption, 25° C., listed as 2-amino-3-methyl-N-(2-morpholinoethyl)-pentanamide disulfate
[6] = stored at 60% RH, then dried at ~45° C. under vacuum for about 15 days

2-amino-3-methyl-N-(2-morpholinoethyl)-pentanamide disulfate [Form A]
Approx. Solubility ([1]; 1-butanol): ≦1.67 mg/mL
Approx. Solubility ([1]; 1-propanol): ≦1.67 mg/mL
Approx. Solubility ([1]; 2-butanol): ≦1.67 mg/mL
Approx. Solubility ([1]; 2-propanol): ≦1.67 mg/mL
Approx. Solubility ([1]; acetone): ≦1.67 mg/mL
Approx. Solubility ([1]; acetonitrile): ≦1.67 mg/mL
Approx. Solubility ([1]; butylamine): ≦1.67 mg/mL
Approx. Solubility ([1]; chloroform): ≦1.67 mg/mL
Approx. Solubility ([1]; dichloromethane): ≦1.67 mg/mL
Approx. Solubility ([1]; diisopropylamine): ≦1.67 mg/mL
Approx. Solubility ([1]; dimethylacetamide (DMA)): ≦1.67 mg/mL
Approx. Solubility ([1]; dimethylformamide (DMF)): ~1670 µg/mL
Approx. Solubility ([1]; ethanol): ≧50 mg/mL
Approx. Solubility ([1]; ethyl acetate (EtOAc)): ≦1.67 mg/mL
Approx. Solubility ([1]; heptane): ≦1.67 mg/mL
Approx. Solubility ([1]; isopropyl acetate): ≦1.67 mg/mL
Approx. Solubility ([1]; isopropyl ether): ≦1.67 mg/mL
Approx. Solubility ([1]; methanol, stirred 30 minutes): ≧100 mg/mL
Approx. Solubility ([1]; methyl ethyl ketone (MEK)): ≦1.67 mg/mL
Approx. Solubility ([1]; methyl-t-butyl ether (MTBE)): ≦1.67 mg/mL
Approx. Solubility ([1]; nitromethane): ≦1.67 mg/mL
Approx. Solubility ([1]; pyridine): ≦1.67 mg/mL
Approx. Solubility ([1]; tetrahydrofuran (THF)): ≦1.67 mg/mL
Approx. Solubility ([1]; toluene): ≦1.67 mg/mL
Approx. Solubility ([1]; trifluoroethanol): ≧50 mg/mL
Approx. Solubility ([1]; water): ≧100 mg/mL
water remaining in desorption phase ([2]; DVS desorption, 65% RH, 25° C.): ~23 wt %
mass above original value at end of desorption cycle ([2]; DVS desorption): ~4 wt %
mass above original value at end of desorption cycle ([2]; DVS desorption, listed as 2-amino-3-methyl-N-(2-morpholinoethyl)-pentanamide disulfate): about 4 wt %
water uptake ([2]; DVS sorption, 25° C.): 2 wt %
water uptake [2, 5]: did not sorb much water
water uptake (total) ([2]; DVS sorption, 65% RH, 25° C.): ~23 wt %
water uptake (sorption maximum) ([2]; DVS sorption, 25° C.): approximately 225 wt %
water uptake (sorption maximum) [2, 5]: up to 225 wt %
behaviour at high humidity ([2]; DVS, high humidity, followed by glass formation upon evaporation): Apparent deliquescence
weight gain ([2]; fresh sample staged at 60% RH in DVS for about 3 hours): about 4 wt %
relative humidity at which hydrate forms ([2]; from DVS isotherm, 25° C.): ~60 % RH
weight gain by TGA ([3]; stored at 43% RH): approximately 1.0 wt %
weight gain by TGA ([3]; stored at 53% RH): ~1.3 wt %
state after storage ([3]; stored at 60% RH, after 27 days): mostly deliquesced
weight gain ([3]; stored at 60% RH, in 20 days): approximately 6 wt %
XRD after storage and drying [3, 6]: identical to starting material
weight by TGA after drying [3, 6]: approximately 3.3 wt %
state after storage ([3]; stored at humidities higher than 60% RH, ambient temperature, after 10 days): deliquesced
weight gain ([3]; stored at humidities lower than 43% RH, ambient temperature, after 15 days): minimaUno weight gain
Final Form ([4]; slurry in DMA, 27 days, ambient temperature, by XRD): monosulfate
Final Form ([4]; slurry in DMF/2-propanol (1/1), 19 days): monosulfate
Final Form ([4]; slurry in DMF/2-propanol (1/2), 19 days): monosulfate
Final Form ([4]; slurry in DMF/2-propanol (2/1), 19 days): monosulfate
Final Form ([4]; slurry in DMF/acetone (1/1), 19 days): monosulfate
Final Form ([4]; slurry in DMF/acetone (1/2), 19 days): monosulfate
Final Form ([4]; slurry in DMF/acetone (2/1), 19 days): monosulfate
Final Form ([4]; slurry in DMF/heptane (1/1), 19 days): monosulfate
Final Form ([4]; slurry in DMF/heptane (1/2), 19 days): monosulfate
Final Form ([4]; slurry in DMF/heptane (2/1), 19 days): monosulfate
Final Form ([4]; slurry in water, duration n/a): all dissolved
